Consider 14 molecules from PMC9676231, “Screening and characterization estrogen receptor ligands from Arnebia euchroma (Royle) Johnst. via affinity ultrafiltration LC-MS and molecular docking” (Frontiers in Plant Science, 2022).

Where two headings read alike, the source gives them in different places.

One may read the Kd as the equilibrium constant for the complex coming apart.

Test [1] has as its target T1, ER α (Homo sapiens, UniProt P03372).
T1 construct: purchased Shanghai Tongwei Biotechnology Co., Ltd. (China)
T1 sequence (P03372 1-595): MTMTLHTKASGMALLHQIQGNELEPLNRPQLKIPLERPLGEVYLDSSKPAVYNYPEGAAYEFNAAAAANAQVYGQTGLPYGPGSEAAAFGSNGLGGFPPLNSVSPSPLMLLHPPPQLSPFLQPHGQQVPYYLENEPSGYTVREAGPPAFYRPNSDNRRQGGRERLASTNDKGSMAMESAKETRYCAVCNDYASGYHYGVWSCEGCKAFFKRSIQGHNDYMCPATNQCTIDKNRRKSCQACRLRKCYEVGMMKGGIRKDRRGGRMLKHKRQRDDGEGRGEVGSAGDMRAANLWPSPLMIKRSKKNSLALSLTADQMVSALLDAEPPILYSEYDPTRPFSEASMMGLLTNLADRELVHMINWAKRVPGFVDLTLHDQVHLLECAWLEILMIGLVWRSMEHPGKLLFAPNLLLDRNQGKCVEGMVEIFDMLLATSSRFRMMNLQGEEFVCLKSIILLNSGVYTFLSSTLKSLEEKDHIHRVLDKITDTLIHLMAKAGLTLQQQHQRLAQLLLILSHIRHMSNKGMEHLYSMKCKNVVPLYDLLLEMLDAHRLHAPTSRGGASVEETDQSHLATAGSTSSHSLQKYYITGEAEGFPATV
Put plainly: Affinity ultrafiltration LC-MS screening (AUF-LC-MS) of Arnebiae Radix extract against ER α. As to conditions: specific binding = Aa/Ab (relative peak area active group / denatured group), extract 5.0 mg/ml, ER α 200 µg/ml, 37°C 60 min, <1.5 = non-ligand. As to the method:
(§1) The above extract was dissolved in DMSO, and the solution was diluted with buffer (pH = 8.0) to a final concentration of 5.0 mg/ml. The sample solution and buffer were successively added to EP tubes. Then buffer, inactivated ER α solution (200 µg/ml, boiled in the water bath for 20 min), and ER α solution (200 µg/ml) were separately added as the blank control group, the denatured control group, and the sample group, respectively. The blank control group and denatured control group were set to exclude some interference factors about background, false positives, and non-specific binding. The group of mixtures was subsequently incubated in the dark at 37°C for 60 min to make a combination balance. Next, each mixture (200 μl) was transferred into an ultrafiltration tube and ultrafiltered at 12,000 rpm for 15 min at 4°C. Then, each group was washed three times with 300 μl of buffer to remove unbound small molecules. Finally, the ligands bound to ER α were dissociated from the complexes by incubating with 300 μl of methanol/water (90/10) for 10 min and then centrifuging at 12,000 rpm for 15 min at room temperature, three times. These ultrafiltrates for each group were dried under nitrogen gas at room temperature and reconstituted in 80 μl of methanol/water (50/50) prior to UHPLC-Q-Exactive Orbitrap MS analysis. All the screening assays were carried out in triplicate. Except for the replacement of the ER, the affinity ultrafiltration screening method of ER β is similar to that of ER α in the other steps.
The analyses are exercised on Q-Exactive Focus Orbitrap MS connected to Thermo Scientific Dionex Ultimate 3000 RS through an ESI source. […] The 0.1% formic acid and acetonitrile were used as the mobile phases A and B, respectively. […] For the MS/MS analysis, the mass spectrometer equipped with an electrospray ionization source was obtained with a resolution of 70,000 detected by the Orbitrap analyzer. In order to comprehensively explore compounds, the positive and negative ion modes were both selected. The mass spectrometry conditions are as follows: electrospray ion source, the spray voltage was 3.5 kV for positive ion mode and 3.2 kV for negative ion mode, sheath gas pressure was 35 arb, auxiliary gas pressure was 10 arb, and the temperature of capillary and auxiliary gas heater was 320°C and 350°C, respectively; and the S-lens RF level was 60. Full-scan data were acquired from m/z 100–1,200 by data-dependent MS^2 scanning or parallel reaction monitoring (PRM) mode. The nitrogen gas served as collision gas, and the energy was set as normalized collision energy 30%. Instrument and data were controlled by the Xcalibur software version 4.2.
Therefore, affinity ultrafiltration can rapidly screen and identify bioactive compounds in complex plant extracts by comparing the changes in peak areas before and after ultrafiltration.

Test [2] has as its target T2, ER β (Homo sapiens, UniProt Q92731).
T2 construct: purchased Shanghai Tongwei Biotechnology Co., Ltd. (China)
Briefly: Affinity ultrafiltration LC-MS screening (AUF-LC-MS) of Arnebiae Radix extract against ER β. As to conditions: specific binding = Aa/Ab (relative peak area active group / denatured group), extract 5.0 mg/ml, ER β 200 µg/ml, 37°C 60 min, <1.5 = non-ligand. As to the method: as §1
The analyses are exercised on Q-Exactive Focus Orbitrap MS connected to Thermo Scientific Dionex Ultimate 3000 RS through an ESI source. For the chromatographic separation, a Thermo Scientific Hypersil GOLD™ aQ (100 mm × 2.1 mm, 1.9 μm) was applied at the flow rate of 0.3 ml/min. The 0.1% formic acid and acetonitrile were used as the mobile phases A and B, respectively. The optimized UHPLC elution procedures were conducted as follows: 0–2 min, 95%–90% A; 2–5 min, 90%–80% A; 5–10 min, 80%–75% A; 10–15 min, 75%–50% A; 15–25 min, 50%–45% A; 25–40 min, 45%–20% A; 40–45 min, 20%–5% A; 45–45.1 min, 5%–95% A; 45–50 min, 95% A. The column temperature was maintained at 35°C. For the MS/MS analysis, the mass spectrometer equipped with an electrospray ionization source was obtained with a resolution of 70,000 detected by the Orbitrap analyzer. In order to comprehensively explore compounds, the positive and negative ion modes were both selected. The mass spectrometry conditions are as follows: electrospray ion source, the spray voltage was 3.5 kV for positive ion mode and 3.2 kV for negative ion mode, sheath gas pressure was 35 arb, auxiliary gas pressure was 10 arb, and the temperature of capillary and auxiliary gas heater was 320°C and 350°C, respectively; and the S-lens RF level was 60. Full-scan data were acquired from m/z 100–1,200 by data-dependent MS^2 scanning or parallel reaction monitoring (PRM) mode. The nitrogen gas served as collision gas, and the energy was set as normalized collision energy 30%. Instrument and data were controlled by the Xcalibur software version 4.2.
Therefore, affinity ultrafiltration can rapidly screen and identify bioactive compounds in complex plant extracts by comparing the changes in peak areas before and after ultrafiltration. […] According to literature reports ([Munigunti et al., 2011]), compounds whose specific binding values were less than 1.5 were considered as non-ligands.

Test [3] addresses T2, ER β. Put plainly: SPR binding measurements (Biacore T200) on immobilized ER β. As to conditions: for kon: read-out: Ka (association rate constant); for koff: read-out: Kd (dissociation rate constant). As to the method:
SPR binding measurements were performed using a Biacore T200 biosensor system (Cytiva, USA). All the SPR-based materials were acquired from Cytiva.
ER β was dissolved in PBS at 1.0 mg/ml and was then diluted in 20 μg/ml sodium acetate buffer at pH 5.0 and immobilized on a CM5 chip using an amine coupling kit. Sulfo-NHS (0.1 mol/l) and EDC (0.4 mol/l) with a 1:1 volume ratio were mixed at 25°C and flowed through a chip channel at 10 μl/min. ERβ was flowed through the chip channel at the same flow rate and reacted with the activated carboxyl groups on the chip for 600 s. Ethanolamine hydrochloride flowed through the chip channel at the same flow rate for 360 s.
Sensor preparation and interaction analyses were performed at 25°C in the PBS running buffer. Each analyte was dissolved in DMSO at 1 mg/ml and then dissolved in the running buffer at 0.20, 0.39, 0.78, 1.56, 3.13, 6.25, 12.5, and 25 μg/ml for SPR measurements.
The running buffer was used as the blank control. Eight groups of gradient concentrations of the same analyte (and the blank control) were flowed through the immobilized channel at a flow rate of 30 μl/min, with an association time of 180s and a dissociation time of 300 s. The collected signals were monitored in real time, and a reference flow cell without immobilized ER β served as a non-specific binding control. The rate constants of association and dissociation were calculated by the non-linear fitting method including the simultaneous fitting for the association and dissociation phases in each sensorgram in Biacore Evaluation Software version 3.2.1 (Cytiva, USA).

For test [4], the target named is thrombin. More on the design: method as in Wang et al., 2017. As to conditions: SPR, direct interaction with thrombin; ref Wang et al., 2017; cited from earlier work. (SPR reads the build-up and loss of mass on a sensor chip optically.)
Setting [5] is: SPR, ER β on CM5 chip, 25°C, PBS running buffer, read-out: KD.
[6] abbreviates: SPR, ER β on CM5 chip, 25°C, PBS running buffer.

T2 sequence (Q92731 whole entry): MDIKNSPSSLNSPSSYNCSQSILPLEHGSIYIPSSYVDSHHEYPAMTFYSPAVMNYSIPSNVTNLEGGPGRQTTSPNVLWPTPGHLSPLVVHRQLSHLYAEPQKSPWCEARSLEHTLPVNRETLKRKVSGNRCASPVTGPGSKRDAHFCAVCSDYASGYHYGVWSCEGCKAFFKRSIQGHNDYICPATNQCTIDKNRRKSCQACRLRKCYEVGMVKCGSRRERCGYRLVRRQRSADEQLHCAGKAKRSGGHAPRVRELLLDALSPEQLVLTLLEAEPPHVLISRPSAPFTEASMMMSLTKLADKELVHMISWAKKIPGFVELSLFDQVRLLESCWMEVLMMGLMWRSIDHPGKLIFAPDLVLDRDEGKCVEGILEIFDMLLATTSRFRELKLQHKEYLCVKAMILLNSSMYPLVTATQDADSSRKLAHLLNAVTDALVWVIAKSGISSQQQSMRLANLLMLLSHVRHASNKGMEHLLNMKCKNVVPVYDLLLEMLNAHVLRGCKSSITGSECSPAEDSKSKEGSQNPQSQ

As for `O=C(O)CCCCC(=O)O` [Adipic acid], the Specific binding in test [1] came out at 5.77.
Take `O=C(O)CC(O)(CC(=O)O)C(=O)O` [Citric acid]: the values for the Specific binding in test [1] and in test [2] were 5.02 and 1.78, respectively.
As for `CC(C)=CCCC1=CC(=O)c2c(O)ccc(O)c2C1=O` [Deoxyshikonin], the Specific binding in test [1] worked out at 2.28.
Regarding `O=c1c(O[C@@H]2O[C@H](CO)[C@@H](O)[C@H](O)[C@H]2O)c(-c2ccc(O)c(O)c2)oc2cc(O)cc(O)c12` [Isoquercitrin], in test [2], the Specific binding turned out to be 1.91. This molecule also had an Rmax in test [3] (SPR, ER β on CM5 chip, 25°C) of 9.57 RU. Also, the Kd in test [3] (setting [5]) came to 1040 nM. In test [3] (setting [6]), the kon is 3020 M⁻¹ s⁻¹ and the koff worked out at 0.00314 s⁻¹.
In the case of `O=C(O)CC(O)C(=O)O` (stereo not shown) [Malic acid], the Specific binding in test [2] turned out to be 2.20.
For `CCCC[C@H](N)C(=O)O` [Norleucine], the Specific binding in test [2] was determined as 2.29.
In the case of `N[C@@H](Cc1ccccc1)C(=O)O` [Phenylalanine], the Specific binding was 6.36 in test [1] and 2.39 in test [2].
As to `O=c1c(O)c(-c2ccc(O)c(O)c2)oc2cc(O)cc(O)c12` [Quercetin], the Specific binding in test [2] is on record as 1.54. This molecule returned an Rmax in test [3] (SPR, ER β on CM5 chip, 25°C) of 13.28 RU. Also, the Kd in test [3] (setting [5]) was determined as 1260 nM. For the same molecule, in test [3], the kon was determined as 2950 M⁻¹ s⁻¹ and the koff stood at 0.00372 s⁻¹.
For the molecule `O=C(/C=C/c1ccc(O)c(O)c1)O[C@H](Cc1ccc(O)c(O)c1)C(=O)O` [Rosmarinic acid], in test [2], the Specific binding turned out to be 2.66. Moreover, in test [3] (SPR, ER β on CM5 chip, 25°C), the Rmax turned out to be 4.41 RU. In test [3] (setting [5]), the Kd came to 1320 nM. Also, in test [3] (setting [6]), the kon came to 2020 M⁻¹ s⁻¹ and the koff came out at 0.00266 s⁻¹.
Take `C[C@@H]1O[C@@H](OC[C@H]2O[C@@H](Oc3c(-c4ccc(O)c(O)c4)oc4cc(O)cc(O)c4c3=O)[C@H](O)[C@@H](O)[C@@H]2O)[C@H](O)[C@H](O)[C@H]1O` [Rutin]: the Rmax in test [3] (SPR, ER β on CM5 chip, 25°C) is given as 7.78 RU. The Kd in test [3] (setting [5]) was found to be 934 nM.
For `O=C(/C=C/c1ccc(O)c2c1[C@H](C(=O)O[C@H](Cc1ccc(O)c(O)c1)C(=O)O)[C@@H](c1ccc(O)c(O)c1)O2)O[C@H](Cc1ccc(O)c(O)c1)C(=O)O` [Salvianolic acid B], the Specific binding in test [2] worked out at 2.24. This molecule had a Kd in test [3] of 2320 nM. Further, the Rmax in test [3] (SPR, ER β on CM5 chip, 25°C) turned out to be 3.51 RU. For the same molecule, in test [3] (setting [6]), the kon is 788 M⁻¹ s⁻¹ and the koff was determined as 0.00183 s⁻¹.
On to `O=C(/C=C/c1ccc(O)c2oc(-c3ccc(O)c(O)c3)cc12)O[C@H](Cc1ccc(O)c(O)c1)C(=O)O` [Salvianolic acid C], for which, in test [2], the Specific binding was 1.75. This molecule gave an Rmax in test [3] (SPR, ER β on CM5 chip, 25°C) of 12.6 RU. The dissociation constant (Kd) in test [3] (setting [5]) came out at 1980 nM. Further, in test [3] (setting [6]), the kon is 1390 M⁻¹ s⁻¹ and the koff turned out to be 0.00276 s⁻¹.
In the case of `COc1ccc(C2COc3cc(O)ccc3C2)c(OC)c1` (stereo not shown) [Sativan], the Specific binding in test [1] was 2.15.
Consider `COc1ccc2cc3[n+](cc2c1OC)CCc1cc2c(cc1-3)OCO2` [berberine], for which the Kd in test [4] was 16400 nM.
